Usually melting point stands for the temperature of the solid-liquid transition.

`O=C(NCCCCN1CCC(c2ccc3c(c2O)CCCC3)CC1)c1ccc(-c2ccc(C(F)(F)F)cc2)cc1` returned a melting point of 220 to 222 °C.

For the molecule `CN1CCN(C(=O)c2ccc(-c3[nH]nc4c3C(=O)c3c(NC(=O)NN5CCOCC5)cccc3-4)s2)CC1`, the melting point lay within 186 to 187 °C. The figure for `COC(=O)C(C)(C)C(=O)OCOC1=C(C(=O)Nc2ccccn2)N(C)S(=O)(=O)c2ccccc21` is 112 to 114 °C; for `Nc1ncnc2c1c(I)cn2COCCO` it is 169 to 170 °C; for `CNC(=O)c1ccc(Nc2nc(OCC3CCCCC3)c3nc[nH]c3n2)cc1` it is 139 to 142 °C. In turn, `COC(=O)CC1OCCN(CCc2c[nH]c3ccccc23)C1=O` (centres undefined) yielded a melting point of 144 °C. The figure for `Cc1[nH]nc(Nc2ccccc2)c1C(=O)OC(C)C` is 138 to 139 °C; for `COC(=O)C(Cc1ccccc1)Oc1ccc2cc(CN(C)C(=O)c3oc4ccccc4c3CCc3ccccc3)ccc2c1Br` (centres undefined) it is 29 to 32 °C. In turn, `Cn1cc(C(=O)O)c(=O)c2cc(F)c(Cl)cc21` returned a melting point of 342 °C. Regarding `CCCCCc1cc(O)c2c(c1)OC(C)(C)[C@H]1CC=C(C(=O)NCC(O)CNC(=O)c3ccc4c(c3)C(=O)OC43c4ccc(O)cc4Oc4cc(O)ccc43)C[C@H]21` (some centres undefined), the melting point was over 330 °C. In the case of `CC[C@H]1[C@@H](O)[C@H](C)C(=O)N1c1ccc(C#N)c(OC)c1`, the melting point was in the range of 78 to 81 °C. The result for `O=C(NC1CN2CCC1CC2)c1ccccc1Cc1ccccc1` (racemic) reads 187 to 188 °C; that for `O=C(Nc1nc2ccc(Cl)cc2c2c1ncn2-c1ccccc1Cl)c1ccccc1`, 255 to 258 °C. The result for `COC(=O)CNC(=O)[C@H](CSC(c1ccccc1)(c1ccccc1)c1ccccc1)NC(=O)OC(C)(C)C` reads 167 to 169 °C. The figure for `CCOC(=O)c1ccc2c(c1)sc1ccccc12` is 74 to 78 °C; for `N#Cc1ccc(Nc2nc(Oc3c(Br)cc(C=O)cc3Br)ccc2[N+](=O)[O-])cc1` it is 218 to 220 °C. With `CC1(C)CCc2c(-c3ccoc3)nc3sc4c(NCc5cccnc5)ncnc4c3c2C1`, the melting point was in the range of 247 to 248 °C. The figure for `CNc1cc(NS(=O)(=O)c2ccc(N)cc2)nc(N(C)C)n1` is 253 to 254 °C.

On to `O=C(NCCSc1cccc2nccn12)c1ccccc1O`, for which the melting point is 156 to 157 °C. The figure for `Nc1scc2c(-c3n[nH]c(=O)o3)nn(-c3ccccc3)c(=O)c12` is over 250 °C. The result for `COc1ccc(CC(=O)Nc2c(C)c(C)c3oc(C)c(-c4ccc(C(C)C)cc4)c3c2C)cc1` reads 202 to 204 °C; that for `O=C(O)Cc1cc(F)cc(Cc2nc3c(F)c(F)cc(F)c3s2)c1`, 139 to 142 °C. As for `COC(=O)C1=C(C(=O)OC)c2c([nH]c3ccccc23)CC1`, the melting point was determined as 249 °C. The figure for `CC(C)(C)C(=O)NCc1cccs1` is 64 to 65 °C; for `COc1ccc(C(=O)COC(C)=O)cc1OC` it is 82 to 84 °C; for `O=C1c2ccc(Cl)cc2C(=O)C(O)(O)C1(O)O` it is 134 to 136 °C. The result for `N#Cc1cccc(OCCc2c[nH]cn2)c1` reads 189 to 190 °C; that for `COc1ccc(C(=O)Nc2ccc(Cl)cc2)cc1N`, 191 to 192 °C. The result for `COc1cc2c(c(Cl)c1Cl)CCC2` reads 78 to 82 °C; that for `O=C(O)c1cccnc1C(=O)c1cccc(C(F)(F)F)c1`, 147 to 150 °C. `COC(=O)c1cccc(O)c1O` had a melting point of 79 to 81 °C.

Consider `CCCc1nc2ccnn2c(OC)c1Cc1ccc(-c2ccccc2C#N)cc1`, for which the melting point is 110 °C.

On to `Cc1cc(Nc2cncc(Nc3ccc(Cl)c(C(=O)N(C)C)c3)n2)n[nH]1`, for which the melting point lay within 213 to 215 °C. The result for `O=C(O)Cc1ccc(-n2cc(F)cn2)cc1` reads 165 to 167 °C; that for `CCCC(SCC(N)=O)c1ccc2c(c1)OCO2` (centres undefined), 91 to 92 °C.

Consider `O=C(OCc1ccc(F)cc1)c1cccc(C(=O)OCc2ccc(F)cc2)c1`, for which the melting point is 78 to 79 °C. The figure for `CSc1ccc(-c2ccccc2)c([N+](=O)[O-])c1` is 51 to 52 °C; for `CCOC(=O)C1=C(C)NC(C(OCC)OCC)=C(C(=O)OCC)C1c1ccccc1[N+](=O)[O-]` (centres undefined) it is 80 to 81.5 °C; for `CNC(C)C(=O)Nc1cccc2c1C(=O)c1c(NC(=O)C(C)NC)cccc1C2=O` (centres undefined) it is 233 to 234 °C. Regarding `CN(CCCCCCCNC(=O)NCCCOc1cccc(CN2CCCCC2)c1)CCN(Cc1ccc(F)cc1)c1ccccn1`, the melting point amounted to 112 °C.

Consider `CCCc1nc(N)c(C(=O)OC)[nH]1`, for which the melting point lay in the range of 133 to 136 °C. The result for `CCCCn1cnc2c(Oc3ccccc3)nc(Nc3ccc(OC)cc3OC)nc21` reads 97 to 99 °C; that for `CCCCc1ncc(/C=C(\Cc2ccc(N)cc2)C(=O)O)n1Cc1ccccc1Cl`, 191 to 192 °C; that for `CC(=O)NC1C(NC(=N)N)C=C(C(=O)O)OC1C(OC(=O)NCCCO)C(O)CO` (centres undefined), 265 to 267 °C. The figure for `COc1ccc(OCC(O)CNC(C)(C)C)c(C2=NNC(=O)CC2)c1` (centres undefined) is 127 to 128 °C; for `COc1cc(C(O)(C(F)(F)F)C(F)(F)F)cc(C)c1O` it is 44 to 45 °C. Molecule `C[C@@H](Oc1c(Br)cc(-c2c3ccccc3c(Br)c3sc4ccccc4c23)cc1Br)C(=O)O` showed a melting point of 131 to 133 °C. The molecule `CCOC(=O)c1cnn2c1nc(NCCCN(C)C)c1cnc3c(cnn3CC)c12` registered a melting point of 212 to 215 °C. The result for `O=c1cc(COC2CCCCO2)occ1O` (centres undefined) reads 94 °C; that for `CCN(CC)CCNC(=O)c1cc(C#N)c(Cl)cc1OC`, 104 to 105 °C; that for `CCCc1nc2c(N)nc3ccccc3c2n1CC(C)(C)CC(C)=NOC`, 196 to 198 °C. The result for `COc1ccc(Nc2nc(Cl)nc(OCC3CCCCC3)n2)cc1F` reads 98 °C. Take `COc1ccccc1NS(=O)(=O)c1cccc(C=CC(=O)NO)c1`: the melting point worked out at 181 °C.

In turn, `COc1cc2c(N3CCN(C(=O)Nc4ccc(Oc5ccccc5)cc4)CC3)ncnc2c(OC)c1OC` yielded a melting point of 83 to 84 °C.

In turn, `CC(=O)OCc1ccc(-c2nc(=O)c3ccccc3s2)cn1` gave a melting point of 171 to 172 °C. Consider `O=C(NC(Cc1ccccc1)C(=O)O)c1ccc2cc(NCc3ccccc3)ccc2c1` (centres undefined), for which the melting point came to 172 °C. The figure for `CCN(CC)Cc1c(Cl)ccc2cc(Cl)cnc12` is 54 °C; for `CC(C)(Oc1ccc([Si](C)(C)C)cc1)C(=O)O` it is 92 to 93 °C; for `COc1ccc(Oc2c(OC)cc(N)c3nccc(C)c23)cc1` it is 185 to 187 °C. Turning to `CCOC(=O)[C@@H]1C[C@H](Br)CN1C(=O)OC(C)(C)C`, the melting point fell in the range of 32 to 34 °C. The result for `CCOC(=O)C1CCN(c2ccc(/C=C/C(=O)O)cc2)CC1` reads 212 °C; that for `COc1ccc(NC(=O)N(C)C)cc1`, 126 to 130 °C.

Regarding `CC(=O)NC(C)C(=O)Nc1ccc2[nH]cc(C(=O)O)c(=O)c2c1` (centres undefined), the melting point is 196 to 200 °C. With `O=C1Nc2ccccc2C12COc1ccc3c(c12)N(Cc1ccccn1)ON3` (centres undefined), the melting point lay within 180 to 182 °C.
